Measured values: patent publication US8022055B2, “Betulinic acid derivatives” (Dabur Pharma Limited, priority 2005, dated 2011)

Experiments:
HBL100 = test: three day MTT cytotoxicity assay, HBL100; format: cell-based, human; settings: for IC50 for cell lines HBL100: HBL100, 72 hours, MTT; for Specific Index (SI) for cell lines HBL100: ratio of IC50 of NIH 3T3 cells to HBL100
Method: (§1) A number of compounds listed in Table-3 were tested for cytotoxicity against prostate, lung, laryngeal, pancreas, breast, colon and ovarian cancer, leukemia and lymphoma, human tumor cell lines. Briefly, a three day MTT cytotoxicity assay was performed, which is based on the principle of uptake of MTT (3-(4,5-dimethylthiazol-2-yl)-2,5-diphenyl tetrazolium bromide), a tetrazolium salt, by the metabolically active cells where it is metabolized by active mitochondria into a blue colored formazan product that is read spectrophotometrically. MIT was dissolved in phosphate buffered saline with a pH of 7.4 to obtain an MIT concentration of 5 mg/ml; the resulting mixture was filtered through a 0.22-micron filter to sterilize and remove a small amount of insoluble residue. For each type of tumor cell, 10,000 to 15,000 cells were seeded in a 96-well culture plate and incubated with the individual betulinic acid derivatives in a CO2 incubator for a total of 72 hours. Control cells not treated with the betulinic acid derivatives were similarly incubated. The assay was terminated by adding 100 μg (20 μl) of MIT to each well then incubating for additional one hour, and finally adding 50 μl of 10% SDS-0.01N HCl to each well to lyse the cells and dissolve formazan. After incubating for one hour, the plate was read spectrophotometrically at 540 nm and the percentage of cytotoxicity calculated using the following formula: Cytotoxicity percentage=100×[1−(X/R1)], where X=(absorbance of treated sample at 540 nm)−(absorbance of blank at 540 nm) R1=absorbance of control sample at 540 nm. The IC50 Values of the cytotoxicity defined as the concentration at which 50% of the cells are killed in vitro was calculated for each cell line treated with each of the betulinic acid derivatives.

DU145 = test: three day MTT cytotoxicity assay, DU145; format: cell-based, human; settings: DU145, 72 hours
Method: as §1

Miapaca = test: three day MTT cytotoxicity assay, Miapaca; format: cell-based, human; settings: for IC50 for cell lines Miapaca: 72 hours, MTT; for Specific Index (SI) for cell lines Miapaca: ratio of IC50 of NIH 3T3 cells to Miapaca
Method: as §1

SW620 = test: three day MTT cytotoxicity assay, SW620; format: cell-based, human; settings: SW620, 72 hours
Method: (§2) Briefly, a three day MTT cytotoxicity assay was performed, which is based on the principle of uptake of MTT (3-(4,5-dimethylthiazol-2-yl)-2,5-diphenyl tetrazolium bromide), a tetrazolium salt, by the metabolically active cells where it is metabolized by active mitochondria into a blue colored formazan product that is read spectrophotometrically. MIT was dissolved in phosphate buffered saline with a pH of 7.4 to obtain an MIT concentration of 5 mg/ml; the resulting mixture was filtered through a 0.22-micron filter to sterilize and remove a small amount of insoluble residue. For each type of tumor cell, 10,000 to 15,000 cells were seeded in a 96-well culture plate and incubated with the individual betulinic acid derivatives in a CO2 incubator for a total of 72 hours. Control cells not treated with the betulinic acid derivatives were similarly incubated. The assay was terminated by adding 100 μg (20 μl) of MIT to each well then incubating for additional one hour, and finally adding 50 μl of 10% SDS-0.01N HCl to each well to lyse the cells and dissolve formazan. After incubating for one hour, the plate was read spectrophotometrically at 540 nm and the percentage of cytotoxicity calculated using the following formula: Cytotoxicity percentage=100×[1−(X/R1)], where X=(absorbance of treated sample at 540 nm)−(absorbance of blank at 540 nm) R1=absorbance of control sample at 540 nm. The IC50 Values of the cytotoxicity defined as the concentration at which 50% of the cells are killed in vitro was calculated for each cell line treated with each of the betulinic acid derivatives.

A549 = test: three day MTT cytotoxicity assay, A549; format: cell-based, human; settings: for IC50 for cell lines A549: A549, 72 hours, MTT; for Specific Index (SI) for cell lines A549: ratio of IC50 of NIH 3T3 cells to A549
Method: as §1

NIH 3T3 cells = test: NIH3T3 cytotoxicity test (72 h MTT assay); format: cell-based; settings: NIH3T3, 72 hours
Method: The cytotoxic effect of chemicals upon NIH 3T3 cells in culture is measured by cell metabolism determination using the previously described MIT assay. Healthy NIH 3T3 cells (an established cell-line), when maintained in culture continuously divide and multiply over time. The basis of this test is that a cytotoxic chemical (regardless of site or mechanism of action) will interfere with this process and, thus, result in a reduction of the growth rate as reflected by cell number. The degree of inhibition of growth, related to the concentration of the test compound, provides an indication of toxicity.
The NIH 3T3 cells are maintained in culture and exposed to test compounds over a range of concentrations and the number of viable cells determined after 72 hours exposure by MIT assay. The number of cells in the presence of test chemicals are compared to that observed in control cultures and the percent inhibition of growth calculated. The IC50 concentration (i.e. the concentration producing 50% inhibition of growth) is determined and expressed as μg/ml. A ratio of IC50 of NIH 3T3 cells to tumor cells is an indicator of predicted toxicity of the molecule and is represented as “Safety Index”. The higher the value, the better is the predicted safety of the molecule.

K562 = test: three day MTT cytotoxicity assay, K562; format: cell-based, human; settings: for IC50 for cell lines K562: K562, 72 hours, MTT; for Specific Index (SI) for cell lines K562: ratio of IC50 of NIH 3T3 cells to K562
Method: as §1

PA1 = test: three day MTT cytotoxicity assay, PA1; format: cell-based, human; settings: PA1, 72 hours
Method: as §2

| Compound | IC50 for cell lines HBL100 (HBL100) [µg/mL] | Specific Index (SI) for cell lines HBL100 (HBL100) | IC50 for cell lines DU145 (DU145) [µg/mL] | IC50 for cell lines Miapaca (Miapaca) [µg/mL] | Specific Index (SI) for cell lines Miapaca (Miapaca) | IC50 for cell lines SW620 (SW620) [µg/mL] | IC50 for cell lines A549 (A549) [µg/mL] | Specific Index (SI) for cell lines A549 (A549) | IC50 for cell lines NIH3T3 (NIH 3T3 cells) [µg/mL] | IC50 for cell lines K562 (K562) [µg/mL] | Specific Index (SI) for cell lines K562 (K562) | IC50 for cell lines PA1 (PA1) [µg/mL] |
| --- | --- | --- | --- | --- | --- | --- | --- | --- | --- | --- | --- | --- |
| CC(C)[C@@H]1CC[C@]2(C(=O)O)CC[C@]3(C)[C@H](CC[C@@H]4[C@@]5(C)Cc6c([nH]c7ccc(Cl)cc67)C(C)(C)[C@@H]5CC[C@]43C)[C@@H]12 [Compound 6, 5′-Chloro-2,3-didehydro-20,29-dihydroindolo[2′,′:2,3]betulinic acid] | >20 | <0.951 | 6.5 | 15.19 ± 1.06 | 1.252 | 5.9 | 8.8 ± 0.74 | 2.163 | 19.03 ± 0.21 | >20 | <0.952 | 6.6 |
| C=C(C)[C@@H]1CC[C@]2(C(=O)O)CC[C@]3(C)C(CCC4[C@@]5(C)Cc6c([nH]c7cc(Cl)cc(Cl)c67)C(C)(C)C5CC[C@]43C)C12 (stereo partly shown) [Compound 31, 2,3-Didehydro-4′,6′-dichloroindolo[2′,3′:2,3]betulinic acid] | >20 | – | >20 | >20 | – | >20 | 5.5 | – | 4.10 | >20 | – | >20 |
| C#CCNC(=O)[C@]12CC[C@@H](C(=C)C)C1C1CCC3[C@@]4(C)Cc5c([nH]c6ccc(Cl)cc56)C(C)(C)C4CC[C@@]3(C)[C@]1(C)CC2 (stereo partly shown) [Compound 27, 28-N-Propargyl-5′-chloro-2,3-didehydroindolo[2′,′:2,3]betulinamide] | >20 | – | >20 | >20 | – | >20 | >20 | – | >20 | >20 | – | >20 |
| C=C(C)[C@@H]1CC[C@]2(C(=O)NCC(=O)O)CC[C@]3(C)C(CCC4[C@@]5(C)Cc6c([nH]c7ccc(Cl)cc67)C(C)(C)C5CC[C@]43C)C12 (stereo partly shown) [Compound 24, 28-N-Glycine-5′-chloro-2,3-didehydroindolo[2′,3′:2,3]betulinamide] | 16.5 ± 0.6 | 0.679 | 10.32 | 10.7 ± 0.63 | 1.047 | 10.42 | 12.4 ± 1.78 | 0.903 | 11.2 ± 0.63 | >20 | <0.56 | 6.66 |
| CC(C)[C@@H]1CC[C@]2(C(=O)O)CC[C@]3(C)[C@H](CC[C@@H]4[C@@]5(C)Cc6c([nH]c7ccc(F)cc67)C(C)(C)[C@@H]5CC[C@]43C)[C@@H]12 [Compound 8, 2,3-Didehydro-5′-fluoro-20,29-dihydroindolo[2′,′:2,3]betulinic acid] | >20 | <0.730 | – | 8.4 ± 0.76 | 1.737 | 7.28 | 8.89 ± 0.84 | 1.641 | 14.59 ± 0.33 | 14.01 ± 0.75 | 1.041 | – |
| CC(C)[C@@H]1CC[C@]2(C(=O)O)CC[C@]3(C)[C@H](CC[C@@H]4[C@@]5(C)Cc6c(oc7ccccc67)C(C)(C)[C@@H]5CC[C@]43C)[C@@H]12 [Compound 12, 2,3-Didehydro-20,29-dihydrobenzfurano[2′,3′:2,3]betulinic acid] | >20 | <1 | >20 | 8.8 ± 0.36 | 2.273 | – | 7.1 ± 1.6 | 2.817 | 20 ± 5.6 | 15.28 ± 0.18 | 1.309 | >20 |
| 1′-Benzyl-2,3-didehydro-20,29-dihydro-4′-phenylpyrrolo[2′,′:2,3]betulinic acid [Compound 13] | >20 | – | >20 | >20 | – | >20 | – | – | >20 | – | – | >20 |
| CC(C)[C@@H]1CC[C@]2(C(=O)O)CC[C@]3(C)C(CCC4[C@@]5(C)Cc6c(n(C)c7ccccc67)C(C)(C)C5CC[C@]43C)C12 (stereo partly shown) [Compound 4, 2,3-Didehydro-20,29-dihydro-1′-methylindolo[2′,3′,2,3]betulinic acid] | 14.14 ± 0.8 | >1.414 | >20 | 5.4 ± 0.43 | >3.703 | – | 6.5 ± 3.4 | >3.076 | >20 | 10.85 ± 1.5 | >1.843 | >20 |
| C=C(C)[C@@H]1CC[C@]2(C(=O)O)CC[C@]3(C)[C@H](CC[C@@H]4[C@@]5(C)Cc6c([nH]c7ccc(F)cc67)C(C)(C)[C@@H]5CC[C@]43C)[C@@H]12 [Compound 7, 2,3-Didehydro-5′-fluoroindolo[2′,′:2,3]betulinic acid] | >20 | – | – | 17.4 ± 2.6 | >1.149 | 9.16 | 17.8 ± 1.79 | >1.123 | >20 | 10.95 ± 0.93 | >1.826 | – |
| C=C(C)[C@@H]1CC[C@]2(C(=O)O)CC[C@]3(C)C(CCC4[C@@]5(C)Cc6c(n(C)c7ccccc67)C(C)(C)C5CC[C@]43C)C12 (stereo partly shown) [Compound 3, 2,3-Didehydro-1′-methylindolo[2′,′:2,3]betulinic acid] | 19.5 ± 2.1 | 0.775 | ≥ 20 | 5.34 ± 0.96 | 2.831 | – | 6.9 ± 0.21 | 2.191 | 15.12 ± 3.04 | 7.73 ± 0.17 | 1.956 | – |
